# “Also recorded” adds a separate entry of the source.
# Legend:
# Format in all cases: cell-based
# [1] = system: human lung fibroblasts (HLF); assay: cAMP accumulation in HLF (HitHunter or AlphaScreen); details: for EC50 / Emax: Homo sapiens, Fibroblast; for EC50: read-out: cAMP pEC50 (converted); for Emax: read-out: cAMP Emax (% max); for cAMP response (in words): acute cAMP accumulation
# Procedure: HLF were grown to confluency in 96-well white ViewPlates, before incubation with a range of agonist concentrations, or vehicle, for 2 h at room temperature in HBSS with 5 mM HEPES, 0.1% w/v HSA, and 5 μM rolipram. […] Rolipram was excluded when measuring cAMP levels in response to PDE inhibitors. cAMP levels were measured using either HitHunter cAMP assay or AlphaScreen competition assay following manufacturer protocol, and were assessed on either a BMG LABTEK ClarioStar or a Packard EnVision plate reader. cAMP concentrations in each well were determined using a standard curve. To account for the inter-assay variation in levels of cAMP produced in each experiment, data were normalized to the maximal forskolin response.
# [2] = system: human lung fibroblasts (HLF); assay: Cell viability assay, caspase-3/7 as marker of apoptosis; details: 24 h
# Procedure: Cell viability was measured using caspase-3/7 expression as a marker of apoptosis after treatment for 24 h with test compounds. HLF were seeded overnight at 6,000 cells/well in 96-well black ViewPlates, before being starved for 24 hours in culture medium devoid of FBS. Cells were incubated for 24 hours in the presence of test compounds at the top concentrations used in the proliferation assays, or in the presence of 100 nM staurosporine to induce apoptosis.
# The presence of the apoptotic marker caspase-3/7 was detected by incubating cells with 8 μM CellEvent™ Caspase-3/7 Red Detection Reagent in dPBS with 5 % FBS, for 30 minutes at 37°C. […] Images were analyzed using a multi wavelength cell scoring algorithm within the MetaXpress 5.3 software, which measures cell number using stained nuclei, and percent of these cells positive for caspase-3/7 from Cy5 readouts. To account for the inter-assay variation in levels of caspase 3/7 detected in each experiment, data were normalized to the staurosporine response.
# Statistical significance across treatment groups was determined by using the one-way ANOVA with Dunnett’s multiple-comparison post hoc test.
# [3] = system: human lung fibroblasts (HLF); assay: HLF proliferation by BrdU incorporation (DELFIA), driven by FBS or PDGF; details: for Emax / EC50: Homo sapiens, Fibroblast, inhibition of BrdU incorporation, NC = not calculated due to incomplete curve; for EC50: mean ± SEM; for inhibition of FBS- and PDGF-driven proliferation (in words): either stimulus
# Procedure: Proliferation of HLF was measured by incorporation of bromodeoxyuridine (BrdU). HLF were seeded overnight at 4000 cells/well in 96-well black ViewPlates, before being starved for 24 h in culture medium devoid of FBS. Proliferation was measured after incubation with a range of concentrations of FBS or PDGF, in DMEM supplemented with 0.1% w/v HSA, for 24 h.
# For anti-remodelling assays using BrdU incorporation, cells were incubated for 24 h with a range of concentrations of test compounds in the presence of near maximal concentrations of FBS or PDGF in DMEM supplemented with 0.1% w/v HSA. Proliferation was assessed using the DELFIA BrdU incorporation assay kit following manufacturer protocol. Fluorescence was measured using a Packard EnVision plate reader. To account for the inter-assay variation in levels of proliferation in each experiment, data were normalized to the PDGF or FBS response.
# [4] = system: human lung fibroblasts (HLF); assay: Fibroblast to myofibroblast transdifferentiation (FMT), αSMA immunofluorescence, TGFβ-driven; details: 48 h, TGFβ 0.3 ng/mL
# Procedure: To assess the differentiation of fibroblasts to the myofibroblast phenotype, immunofluorescence was used to monitor increases in α smooth muscle actin (αSMA). HLF were seeded overnight at 1000 cells/well in 384-well black clear bottom plates, before being starved for 24 h growth medium devoid of FBS.
# For anti-remodelling assays using FMT, cells were incubated for 48 h with a range of concentrations of test compounds and incubated for 48 h, at 37°C, 5% CO2 in the presence of a near maximal concentration of TGFβ (0.3 ng/mL), to promote differentiation in DMEM supplemented with 0.1% w/v HSA. Following stimulation, cells were fixed in 4% paraformaldehyde, washed 3× in PBS (with Ca^2+/Mg^2+), and incubated with permeabilising blocking buffer (dPBS (with Ca^2+/Mg^2+), 10% FBS (v/v), 0.1% Triton X-100 (v/v)) for 1 h at 37°C. Wells were then washed 3× in wash buffer (Tris Buffered Saline (TBS), 0.05% (v/v) Tween-20) and incubated with mouse anti-α SMA (1:1000 dilution in permeabilising blocking buffer) for 1 h at room temperature, with gentle shaking. Following 3× wash in wash buffer, wells were incubated with blocking buffer containing Hoechst to stain for nuclear DNA (2 μM), and FITC-conjugated Affini-pure goat […] IgG (1:1000 dilution in blocking buffer) for 30 min at 37°C. Fluorescence was then quantified on a widefield ImageXpress Micro microscope, with a Plan Fluor 20X objective, DAPI filter cube (excitation 400–418 nm, emission 435–470 nm), 50 ms exposure time for nuclei, and FITC filter cube (excitation 467–498 nm, emission 513–556 nm), 200 ms exposure time for αSMA.
# To quantify increases in αSMA fluorescence, a standard Multi-Wavelength Cell Scoring algorithm was used in MetaXpress 5.3 software (Molecular Devices, California, USA). To account for the inter-assay variation in levels of αSMA expression produced in each experiment, data were normalized to the response to TGFβ.
# [5] = HLF, 2 h, room temperature, 5 μM rolipram (excluded for PDE inhibitors), mean ± SEM, at least 3 experiments, NC = not calculated due to incomplete curve
# [6] = HLF, 2 h, percentage of the maximal forskolin response, mean ± SEM, NC = not calculated due to incomplete curve
# [7] = HLF, 1:10 dilution of top conc 10 μM
# [8] = HLF, top conc 10 μM, mean ± SEM, n=3
# [9] = 24 h, EC80 PDGF, percentage of maximal proliferation observed with PDGF, read-out: Proliferation vs PDGF Emax (% max)
# [10] = 24 h, EC80 concentration of PDGF, read-out: Proliferation vs PDGF pEC50 (converted)
# [11] = 24 h, EC80 concentration of serum, read-out: Proliferation vs serum pEC50 (converted)
# [12] = 24 h, EC80 serum, percentage of maximal proliferation observed with serum, read-out: Proliferation vs serum Emax (% max)
compound,measurement,setting,value
"CCCCC[C@H](O)/C=C/[C@H]1[C@H](O)CC(=O)[C@@H]1C/C=C\CCCC(=O)O [PGE2, prostaglandin E2]",EC50,[1]; [5],45.7 nM
same,Emax,[1]; [6],85.5 ± 8.64%
same,"% cells positive for caspase-3/7, 1:10 dilution",[2]; [7],0.53 ± 0.04%
same,"% cells positive for caspase-3/7, Top conc",[2]; [8],0.68 ± 0.29%
same,Emax,[3]; [9],71 ± 3.86%
same,EC50,[3]; [10],2.51 nM
same,EC50,[3]; [11],91.2 nM
same,Emax,[3]; [12],43.1 ± 6.14%
CCNC(=O)[C@H]1O[C@@H](n2cnc3c(N)nc(NCCc4ccc(CCC(=O)O)cc4)nc32)[C@H](O)[C@@H]1O [CGS-21680],cAMP response (in words),[1]; HLF,no detectable cAMP response
"Alpha melanocortin stimulating hormone (Ac-SYSMEHFRWGKPV-NH2; ends and bridges not checked; UniProt P01189 138-150, looked up) [α-MSH, MC1, MC3, MC4, MC5 agonist]",cAMP response (in words),[1]; HLF,no detectable cAMP response
same,inhibition of TGFβ-driven FMT (in words),[4],full concentration-response curves could not be established
same,inhibition of FBS- and PDGF-driven proliferation (in words),"[3]; BrdU, 24 h",incapable of inhibiting the proliferation mediated by either stimulus
CC(C)(C)NCC(O)c1ccc(O)c(CO)c1 (stereo not drawn) [Salbutamol],EC50,[1]; [5],43.7 nM
same,Emax,[1]; [6],68.9 ± 1.4%
same,"% cells positive for caspase-3/7, 1:10 dilution","[2]; human, 1 μM",0.53 ± 0.12%
same,"% cells positive for caspase-3/7, Top conc","[2]; human, 10 μM",0.46 ± 0.09%
same,Emax,[3]; [9],69.2 ± 5.53%
same,EC50,[3]; [10],10.5 nM
same,EC50,[3]; [11],91.2 nM
same,Emax,[3]; [12],32.4 ± 5.84%
CCCCC(C)(O)C/C=C/[C@H]1[C@H](O)CC(=O)[C@@H]1CCCCCCC(=O)OC (mixture of isomers) [Misoprostol],EC50,[1]; [5],107 nM
same,Emax,[1]; [6],52.4 ± 6.23%
same,"% cells positive for caspase-3/7, 1:10 dilution","[2]; human, 1 μM",0.55 ± 0.04%
same,"% cells positive for caspase-3/7, Top conc","[2]; human, 10 μM",0.54 ± 0.18%
same,Emax,[3]; [9],94.1 ± 1.59%
same,EC50,[3]; [10],741 nM
same,EC50,[3]; [11],182 nM
same,Emax,[3]; [12],34.7 ± 0.71%
COc1ccc(CC(C)NCC(O)c2ccc(O)c(NC=O)c2)cc1 (stereo not drawn) [Formoterol],EC50,[1]; 2 h,0.417 nM
same,"% cells positive for caspase-3/7, 1:10 dilution","[2]; HLF, 1:10 dilution of top conc 100 nM",0.88 ± 0.48%
same,"% cells positive for caspase-3/7, Top conc","[2]; HLF, top conc 100 nM",0.67 ± 0.22%
same,EC50,[3]; [10],0.832 nM
same,EC50,[3]; [11],0.263 nM
O=C(NOC[C@H](O)CO)c1ccc(F)c(F)c1Nc1ccc(I)cc1F [PD0325901],inhibition of PDGF-mediated proliferation (in words),[3]; 3 ng/mL PDGF,blocked PDGF-mediated proliferation of HLF
CC#CCC(C)[C@H](O)/C=C/[C@@H]1[C@H]2c3cccc(CCCC(=O)O)c3O[C@H]2C[C@H]1O (mixture of isomers) [Beraprost],EC50,[1]; [5],105 nM
same,Emax,[1]; [6],107 ± 8.99%
CN[C@@H]1C[C@H]2O[C@@](C)([C@@H]1OC)n1c3ccccc3c3c4c(c5c6ccccc6n2c5c31)C(=O)NC4 [Staurosporine],"% cells positive for caspase-3/7, Top conc","[2]; HLF, top conc 100 nM",54.8 ± 13.6%
same,caspase-3/7 expression / apoptosis (in words),"[2]; HLF, one-way ANOVA with Dunnett's test",statistically significant cell apoptosis
CCc1cc2c(cc1CC)CC(NC[C@H](O)c1ccc(O)c3[nH]c(=O)ccc13)C2 [Indacaterol],maximal cAMP response,"[1]; HLF, % of the forskolin response",80%
same,EC50,[1]; [5],2.63 nM
same,Emax,[1]; [6],83.3 ± 4.47%
same,"% cells positive for caspase-3/7, 1:10 dilution","[2]; HLF, 1:10 dilution of top conc 1 μM",0.62 ± 0.15%
same,"% cells positive for caspase-3/7, Top conc","[2]; HLF, top conc 1 μM",0.62 ± 0.01%
same,Emax,[3]; [9],90.3 ± 5.25%
same,EC50,[3]; [10],1.45 nM
same,EC50,[3]; [11],11 nM
same,Emax,[3]; [12],47.9 ± 1.58%
O=C(O)COc1cccc(-c2ocnc2-c2nc(-c3ccccc3)c(-c3ccccc3)o2)c1 [BMY-45778],cAMP pEC50,[1]; [5],7.25 ± 0.09
same,cAMP Emax (% max),[1]; [6],50.0 ± 4.59 % max
CC(C)Cn1c(=O)n(C)c(=O)c2[nH]cnc21 [IBMX],cAMP response (in words),[1]; HLF,no detectable cAMP accumulation; also recorded: did not observe any acute cAMP accumulation
same,inhibition of TGFβ-driven FMT (in words),[4],full concentration-response curves could not be established; also recorded: some inhibition of both proliferation and FMT at higher concentrations
same,inhibition of FBS- and PDGF-driven proliferation (in words),"[3]; BrdU, 24 h",some inhibition of both proliferation and FMT at higher concentrations
CCCC1([C@H](O)C/C=C/[C@H]2[C@H](O)CC(=O)[C@@H]2CCCCCCC(=O)OC)CCC1 [Butaprost],EC50,[1]; [5],1550 nM
same,Emax,[1]; [6],8.76 ± 3.25%
same,"% cells positive for caspase-3/7, 1:10 dilution",[2]; [7],0.90 ± 0.39%
same,"% cells positive for caspase-3/7, Top conc",[2]; [8],0.80 ± 0.29%
same,maximal level of inhibition of serum-driven proliferation,"[3]; BrdU, 24 h, near maximal FBS",29%
same,EC50,[3]; [11],64.6 nM
same,Emax,[3]; [12],29.1 ± 7.29%
CC#CCC(C)[C@H](O)/C=C/[C@@H]1[C@H]2C/C(=C/CCCC(=O)O)C[C@H]2C[C@H]1O (stereo partly drawn) [Iloprost],EC50,[1]; [5],77.6 nM
same,Emax,[1]; [6],99.5 ± 7.22%
same,"% cells positive for caspase-3/7, 1:10 dilution","[2]; human, 0.3 μM",1.15 ± 0.29%
same,"% cells positive for caspase-3/7, Top conc","[2]; human, 3 μM",0.88 ± 0.08%

# Source: article PMC5889558, “The inhibition of human lung fibroblast proliferation and differentiation by Gs-coupled receptors is not predicted by the magnitude of cAMP response” (Respiratory Research, 2018)
